Test results taken from patent publication US9045445B2, “Glycine transporter-1 inhibitors, methods of making them, and uses thereof” (Albany Molecular Research, Inc., priority 2010, dated 2015).
Structures can show the parent of a compound that is named as a salt. Where two headings read alike, the source gives them in different places.

What was measured:
[1] = biological target: T1, glycine transporter-1 (GlyT-1) (Homo sapiens, UniProt P48067); assay: [14C]glycine uptake assay in JAR cells endogenously expressing GlyT-1 (scintillation proximity); type: cell-based
T1 construct: JAR cells (ATCC#HTB-144), which endogenously express GlyT-1; host or cells: JAR human choriocarcinoma cells
T1 sequence (P48067 1-706): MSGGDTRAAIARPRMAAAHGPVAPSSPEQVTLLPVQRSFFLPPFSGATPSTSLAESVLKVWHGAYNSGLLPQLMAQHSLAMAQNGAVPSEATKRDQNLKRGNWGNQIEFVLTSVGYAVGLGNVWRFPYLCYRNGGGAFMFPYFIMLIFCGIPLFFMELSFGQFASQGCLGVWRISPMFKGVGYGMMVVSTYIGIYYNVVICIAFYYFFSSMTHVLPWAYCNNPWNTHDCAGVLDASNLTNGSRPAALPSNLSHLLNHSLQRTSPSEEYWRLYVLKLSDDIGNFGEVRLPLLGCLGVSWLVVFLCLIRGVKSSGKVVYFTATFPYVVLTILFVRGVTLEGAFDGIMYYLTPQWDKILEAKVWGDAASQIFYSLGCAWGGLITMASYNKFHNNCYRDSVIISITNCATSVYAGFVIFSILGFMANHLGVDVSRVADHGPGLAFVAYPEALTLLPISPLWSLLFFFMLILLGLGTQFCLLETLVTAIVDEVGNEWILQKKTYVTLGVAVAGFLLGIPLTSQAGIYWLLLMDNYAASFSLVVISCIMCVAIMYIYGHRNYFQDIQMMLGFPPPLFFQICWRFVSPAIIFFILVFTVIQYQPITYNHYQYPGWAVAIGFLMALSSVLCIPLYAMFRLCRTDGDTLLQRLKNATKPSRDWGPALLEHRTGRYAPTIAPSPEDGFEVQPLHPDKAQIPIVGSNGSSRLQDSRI
In short: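 IC50 comes from a four-parameter fit of nine-point, duplicate curves measuring inhibition of 5 μM [14C]glycine uptake, read by scintillation proximity after 3 h at 37 °C. Cells are human JAR, which express GlyT-1 endogenously, given 10 min compound pre-treatment in pH 7.4 buffer with 5 mM alanine and 0.75% DMSO.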

[2] = biological target: T2, glycine transporter-2 (GlyT-2) (Homo sapiens, UniProt Q9Y345); assay: [14C]glycine uptake assay in HEK-GlyT-2 transfected cells; type: cell-based; conditions: HEK-GlyT-2 cells
T2 construct: expressed in transfected cells
T2 sequence (Q9Y345 1-797): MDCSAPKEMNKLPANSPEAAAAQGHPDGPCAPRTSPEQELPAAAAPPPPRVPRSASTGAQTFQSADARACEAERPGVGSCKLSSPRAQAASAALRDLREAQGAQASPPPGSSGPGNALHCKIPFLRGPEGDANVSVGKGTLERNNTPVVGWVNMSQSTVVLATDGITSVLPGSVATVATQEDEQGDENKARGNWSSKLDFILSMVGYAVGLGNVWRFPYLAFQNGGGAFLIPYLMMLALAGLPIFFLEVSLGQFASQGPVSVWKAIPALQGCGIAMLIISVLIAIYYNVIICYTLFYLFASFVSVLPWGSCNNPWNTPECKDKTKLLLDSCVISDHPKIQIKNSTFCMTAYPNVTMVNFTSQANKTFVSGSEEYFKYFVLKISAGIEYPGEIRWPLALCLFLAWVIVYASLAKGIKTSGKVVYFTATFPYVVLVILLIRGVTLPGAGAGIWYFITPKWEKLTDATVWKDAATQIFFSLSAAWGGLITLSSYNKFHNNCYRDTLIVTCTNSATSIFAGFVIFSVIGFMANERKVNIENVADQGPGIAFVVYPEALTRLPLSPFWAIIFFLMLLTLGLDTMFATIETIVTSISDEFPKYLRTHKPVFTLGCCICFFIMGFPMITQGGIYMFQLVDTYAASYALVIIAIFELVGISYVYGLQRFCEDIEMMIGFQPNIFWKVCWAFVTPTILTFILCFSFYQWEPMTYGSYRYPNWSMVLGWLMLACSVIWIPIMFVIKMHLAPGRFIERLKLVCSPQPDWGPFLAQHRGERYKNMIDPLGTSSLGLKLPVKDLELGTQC

[3] = JAR cells, [14C]glycine 5 μM, 3 hour incubation, read-out: GlyT-1 IC50

IC50 [1, 3]	IC50 [2]	Compound	IC50 ([1]; GlyT-1 IC50 (nM))
952 nM	54800 nM	CC(C)CS(=O)(=O)N1CCN(C2(CNC(=O)c3c(N)cccc3Cl)CCCCC2)CC1 [compound 92, 2-Amino-6-chloro-N-((1-(4-(isobutylsulfonyl)piperazin-1-yl)cyclohexyl)methyl) benzamide Hydrochloride]	–
50 nM	> 75000 nM	COc1cc(F)cc(SC)c1C(=O)NCC1(N2CCN(S(=O)(=O)CC3CC3)CC2)CCCCC1 [compound 82, N-((1-(4-(Cyclopropylmethyl-sulfonyl)piperazin-1-yl)cyclohexyl)methyl)-4-fluoro-2-methoxy-6-(methylthio)benzamide Hydrochloride]	–
2 nM	> 75000 nM	COc1cccc(F)c1C(=O)NCC1(N2CCN(S(=O)(=O)c3cn(C)cn3)CC2)CCCCC1 [compound 96, 2-Fluoro-6-methoxy-N-((1-(4-(1-methyl-1H-imidazol-4-ylsulfonyl)piperazin-1-yl)cyclohexyl)methyl) benzamide Hydrochloride]	–
4 nM	> 75000 nM	Cn1cc(S(=O)(=O)N2CCN(C3(CNC(=O)c4c(F)cc(F)cc4F)CCC(F)(F)CC3)CC2)nn1 [compound 234, N-((4,4-Difluoro-1-(4-(1-methyl-1H-1,2,3-triazol-4-ylsulfonyl)piperazin-1-yl)cyclohexyl)methyl)-2,4,6-trifluorobenzamide Hydrochloride]	–
268 nM	> 75000 nM	CCCS(=O)(=O)N1CCN(C2(CNC(=O)c3c(C)cc(F)cc3OC)CCCC2)CC1 [compound 75, 4-Fluoro-2-methoxy-6-methyl-N-((1-(4-(propylsulfonyl)piperazin-1-yl)cyclopentyl)methyl) benzamide Hydrochloride]	–
549 nM	635 nM	CCCS(=O)(=O)N1CCN(C2(CNC(=O)c3ccc(OCc4ccccc4)cc3)CCCCC2)CC1 [compound 27, 4-(Benzyloxy)-N-((1-(4-(propylsulfonyl)piperazin-1-yl)cyclohexyl)methyl) benzamide Hydrochloride]	–
71 nM	> 75000 nM	CCCS(=O)(=O)N1CCN(C2(CNC(=O)c3cc(Cl)ccc3Cl)CCCCC2)CC1 [compound 32, 2,5-Dichloro-N-((1-(4-(propylsulfonyl)piperazin-1-yl)cyclohexyl)methyl) benzamide Hydrochloride]	–
177 nM	> 75000 nM	CCCS(=O)(=O)N1CCN(C2(CNC(=O)c3ccc(Cl)cc3Cl)CCCOC2)CC1 (stereo not drawn) [compound 125, 2,4-Dichloro-N-((3-(4-(propylsulfonyl)piperazin-1-yl)tetrahydro-2H-pyran-3-yl)methyl)benzamide Hydrochloride]	–
5 nM	> 75000 nM	Cn1cnc(S(=O)(=O)N2CCN(C3(CNC(=O)c4ccc(F)cc4Cl)CCC(F)(F)CC3)CC2)c1 [compound 166, 2-Chloro-N-((4,4-difluoro-1-(4-(1-methyl-1H-imidazol-4-ylsulfonyl)piperazin-1-yl)cyclohexyl)methyl)-4-fluorobenzamide Hydrochloride]	–
63 nM	> 75000 nM	CCCS(=O)(=O)N1CCN(C2(CNC(=O)c3ccc(F)cc3Cl)CCCCC2)CC1 [compound 12, 2-Chloro-4-fluoro-N-((1-(4-(propylsulfonyl)piperazin-1-yl)cyclohexyl)methyl) benzamide Hydrochloride]	–
6 nM	> 75000 nM	Cn1cc(S(=O)(=O)N2CCN(C3(CNC(=O)c4ccc(C(F)(F)F)cc4F)CCC(F)(F)CC3)CC2)nn1 [compound 232, N-((4,4-Difluoro-1-(4-(1-methyl-1H-1,2,3-triazol-4-ylsulfonyl)piperazin-1-yl)cyclohexyl)methyl)-2-fluoro-4-(trifluoromethyl)benzamide Hydrochloride]	–

Compound	IC50 [1, 3]	IC50 [2]	IC50 ([1]; GlyT-1 IC50 (nM))
CCCS(=O)(=O)N1CCN(C2(CNC(=O)c3c(OC)cc(F)cc3SC)CCCCC2)CC1 [compound 20, 4-Fluoro-2-methoxy-6-(methylthio)-N-((1-(4-(propylsulfonyl)piperazin-1-yl)cyclohexyl)methyl)benzamide Hydrochloride]	–	> 75000 nM	6 nM
